SMILES strings stand for the structures. Entries after “also recorded” stand apart in the source; their conditions may differ. Read-outs that look alike come from different tables or passages of the source.

Results on four molecules are retold here after PMC11796312, “Multifunctional, Fluorene‐Based Modulator of Cholinergic and GABAergic Neurotransmission as a Novel Drug Candidate for Palliative Treatment of Alzheimer's Disease” (Angewandte Chemie (International Ed. in English), 2024).

The test system of data set [1] is hGAT‐3. As to conditions: cited from earlier work.
The target of data set [2] is T1, human butyrylcholinesterase (hBuChE) (Homo sapiens, UniProt P06276).
T1 construct: from human plasma was from Vivonics (Bedford, MA, USA); purchased Vivonics (Bedford, MA, USA); host or cells: human plasma
T1 sequence (P06276 29-602): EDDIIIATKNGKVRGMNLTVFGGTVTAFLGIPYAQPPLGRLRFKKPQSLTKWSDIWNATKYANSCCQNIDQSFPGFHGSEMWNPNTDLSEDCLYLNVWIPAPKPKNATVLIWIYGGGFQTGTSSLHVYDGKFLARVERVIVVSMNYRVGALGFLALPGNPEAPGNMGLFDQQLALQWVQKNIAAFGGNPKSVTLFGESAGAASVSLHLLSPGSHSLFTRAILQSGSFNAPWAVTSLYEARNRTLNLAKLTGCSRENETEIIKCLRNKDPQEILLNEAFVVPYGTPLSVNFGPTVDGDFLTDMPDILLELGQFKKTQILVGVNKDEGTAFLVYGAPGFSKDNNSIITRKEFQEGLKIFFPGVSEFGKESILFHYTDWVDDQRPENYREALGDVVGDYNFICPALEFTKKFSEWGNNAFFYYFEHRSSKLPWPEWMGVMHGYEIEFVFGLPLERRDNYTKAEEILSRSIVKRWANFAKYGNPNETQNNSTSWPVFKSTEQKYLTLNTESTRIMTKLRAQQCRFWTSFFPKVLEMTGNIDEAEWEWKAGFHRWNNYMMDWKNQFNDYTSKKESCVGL
Put plainly: biochemical. The conditions noted are these: inhibitor concentration 1 μM; read-out: hBuChE % inh.

Data set [3] deals with mice treated with scopolamine. The data set is described as follows: Passive avoidance (PA) task, scopolamine-induced amnesia. Type of data set: in vivo. The conditions noted are these: mouse, in vivo. How it is done: Animals and housing conditions
In all pharmacodynamic in vivo experiments, except for the Barnes maze (BM) task, adult male Albino Swiss (CD-1) mice weighing between 18 and 22 g and purchased from the Animal Breeding Farm of the Faculty of Pharmacy, Jagiellonian University Medical College were used. In BM task, C57BL/6J mice of the same weight (Animalab, Poland) were used.
Animals were housed in cages (10 mice per cage) at a constant temperature of 22 ± 2 °C, humidity of 55 ± 10%, and a light/dark (12:12) cycle (lights on at 7 AM). Before the experiments, the animals had unlimited access to food and water. Specified conditions for the maintenance of mice were ensured throughout the experiments, including tree bedding (Transwior, Poland) and cage enrichment (tunnels, nesting material, wooden igloos, etc.). […]
doses for behavioral assays. Lower doses were also assessed if at least one of them was […]
On the first day, during the acquisition trial (a conditioning phase), the test compound 6, scopolamine, and vehicle were injected. […] The latency between opening the guillotine gate and the mouse entering the black compartment was measured for each mouse. On the next day, during the retention (drug-off) trial, the mice were placed again into the white compartment for a 30-s habituation period, and the latency to enter the black compartment was measured for each mouse. […]

Data set [4] relates to BuChE. As to conditions: 1 or 5 µM compound (printed '1 or 5 M'), vs DMSO.
Data set [5] has as its system SH-SY5Y cells. The data set is described as follows: Intracellular RONS, DCFH-DA probe, SH-SY5Y. It is filed as cell-based, human.
Data set [6] has as its system SIM-A9 cells. The data set is described as follows: Intracellular RONS, DCFH-DA probe, SIM-A9. Type of data set: cell-based, mouse.
Data set [7] has as its system Human neuroblastoma cells SH-SY5Y. Put plainly: MTT cell viability assay, SH-SY5Y. It is filed as cell-based. As to conditions: 24 h, read-out: IC50 (MTT) ± SEM. From the text:
(§1) Human neuroblastoma cells SH-SY5Y and mouse microglial cells SIM-A9 were used to evaluate cell viability, intracellular RONS, and malondialdehyde (MDA; CAS No. 542–78-9).
(§2) SH-SY5y cells were cultivated in Dulbecco's modified Eagle's medium (DMEM; Biosera, Nuaille, France) supplemented with 10% fetal bovine serum (Biosera) and 1% penicillin-streptomycin antibiotic solution (Sigma-Aldrich, St. Louis, MO, USA). The culture medium for SIM-A9 cells was further supplemented with donor horse serum (Biosera). The cells were incubated at 37 °C in a CO2 incubator (BINDER CO2 incubator CB 160, Tuttlingen, Germany) and routinely passaged by trypsinization at 75 –85% confluence.
(§3) Colorimetric Cell Viability Assay
(§4) The toxicological indices IC 50 used in the present study were measured utilizing 3-(4,5-dimethylthiazol-2-yl)-2,5-diphenyl-tetrazolium bromide (MTT) reduction assay after (1 picture or pasted object on this page, not shown here)
(§5) 24 h incubation with tested compounds. […]
(§6) incubation, the cultivation medium containing serially diluted substances was aspirated and replaced with a fresh medium containing MTT at a concentration of 0.5 mg/mL and subsequently incubated at 37 °C for 1 h. […] Cell viability was assessed spectrophotometrically by the amount of formazan produced. Absorbance was measured at 570 nm with 650 nm reference wavelength on Spark (Tecan Group Ltd, Switzerland). […]
(In general: Formazan colour is commonly taken as a measure of viable cells.)

The subject of data set [8] is SH-SY5Y cells. Put plainly: Intracellular O2•-, DHE probe, SH-SY5Y. Type of data set: cell-based, human.
Data set [9] concerns SIM-A9 cells. The data set is described as follows: LC-MS determination of total MDA, SIM-A9. Type of data set: cell-based, mouse.
Data set [10] has as its system SIM-A9 cells. Put plainly: Intracellular O2•-, DHE probe, SIM-A9. It is filed as cell-based, mouse.
The subject of data set [11] is SH-SY5Y cells. Put plainly: LC-MS determination of total MDA, SH-SY5Y. It is filed as cell-based, human.
Data set [12] concerns mouse microglial cells SIM-A9. Put plainly: MTT cell viability assay, SIM-A9. It is filed as cell-based. As to conditions: SIM-A9, 24 h; read-out: IC50 (MTT) ± SEM.
Text: as §1, §2, §3, §4, §5, §6

Usually IC50 stands for the midpoint of a concentration-inhibition curve. Regarding `COc1ccc(C(OCCN2CCC[C@H](C(=O)O)C2)(c2ccc(OC)cc2)c2ccc(OC)cc2)cc1` [(S)‐SNAP‐5114, reference compound], the IC50 in [1] was 45 µM.
Take `O=C(CC(c1ccccc1)c1ccccc1)N[C@@H](Cc1ccccc1)[C@@H](O)CNCc1ccccc1` [Compound I]: the IC50 in data set [1] (earlier screening) was 3 µM. Besides, the inhibition at 1 µM in data set [2] is 67.7%. In addition, the “pro-cognitive effect in passive avoidance task” value in data set [3] was “did not observe pro‐cognitive effects; also recorded: non active”.
For the molecule `Nc1c2c(nc3ccccc13)CCCC2` [Tacrine, reference compound], the “Melting temperature (Tm) of BuChE” value in data set [4] is reported as “increased Tm of BuChE”.
Turning to `CC(C)(C)OO` [tBHP], the “intracellular RONS, fold vs untreated control” value in data set [5] (conc. = IC50, 1 h) came to 1.25 fold; in [5] (conc. = IC50, 4 h), 1.11 fold. Also, the “intracellular RONS change” value in data set [5] (conc. = IC50, 24 h) is “decrease of RONS”. Also, in data set [5] (conc. = ½ IC50, 1 h), the “intracellular RONS, fold higher” value is 1.12 fold. The “intracellular RONS, times higher” value in data set [6] (conc. = IC50, 1 h) is given as 1.21 fold. In data set [6] (conc. = IC50, 24 h), the “intracellular RONS, times lower” value is on record as 1.30 fold. Further, the half-maximal inhibitory concentration (IC50) in data set [7] was 19.9 ± 1.35 µM; in [12] it was 60.4 ± 3.54 µM. Moreover, the “intracellular O2•-, times higher” value in data set [8] (IC50, 1 h) came to 1.25 fold; in data set [8] (IC50, 4 h), 1.23 fold; in data set [8] (¼ IC50, 1 h), 1.10 fold; in data set [8] (¼ IC50, 4 h), 1.10 fold; in data set [8] (½ IC50, 1 h), 1.22 fold; in data set [8] (½ IC50, 4 h), 1.16 fold. The “intracellular O2•-, times higher” value in [10] (IC50, 1 h) stood at 1.11 fold; in [10] (IC50, 4 h), 1.10 fold; in data set [10] (IC50, 24 h) it was 1.25 fold; in data set [10] (½ IC50, 1 h), 1.10 fold; in data set [10] (½ IC50, 4 h), 1.10 fold; in data set [10] (½ IC50, 24 h), 1.32 fold. Besides, the “intracellular O2•-, fold higher” value stood at 1.11 fold in [8] (IC50, 24 h); 1.10 fold in [8] (½ IC50, 24 h); 1.27 fold in data set [10] (¼ IC50, 24 h). For the same molecule, the “MDA level, times higher” value came to 1.27 fold in data set [9] (IC50, 4 h); 1.18 fold in data set [9] (highest concentration (IC50), 1 h); 1.16 fold in [9] (¼ IC50, 4 h); 1.18 fold in [9] (½ IC50, 4 h); 1.45 fold in data set [11] (IC50, 1 h); 1.61 fold in [11] (IC50, 24 h). Besides, the “MDA level, times higher” value in data set [11] (¼ IC50, 1 h) was determined as 1.23 fold; in [11] (¼ IC50, 24 h) it was 1.11 fold; in data set [11] (½ IC50, 1 h), 1.18 fold; in data set [11] (½ IC50, 24 h), 1.20 fold. The “MDA level, fold higher” value is 1.45 fold in data set [9] (IC50, 24 h); 1.15 fold in data set [9] (½ IC50, 24 h); 1.45 fold in [11] (IC50, 4 h); 1.18 fold in data set [11] (½ IC50, 4 h).
